Consider 23 molecules from US9598391B2, “Substituted chroman compounds as calcium sensing receptor modulators” (LUPIN LIMITED, priority 2012, dated 2017).

Counter-ions that a name gives are not always drawn.

The target in the experiment is T1, Calcium Sensing Receptor (CaSR) (Homo sapiens, UniProt P41180).
T1 construct: expressed in transfected cells
T1 sequence (P41180 20-1078): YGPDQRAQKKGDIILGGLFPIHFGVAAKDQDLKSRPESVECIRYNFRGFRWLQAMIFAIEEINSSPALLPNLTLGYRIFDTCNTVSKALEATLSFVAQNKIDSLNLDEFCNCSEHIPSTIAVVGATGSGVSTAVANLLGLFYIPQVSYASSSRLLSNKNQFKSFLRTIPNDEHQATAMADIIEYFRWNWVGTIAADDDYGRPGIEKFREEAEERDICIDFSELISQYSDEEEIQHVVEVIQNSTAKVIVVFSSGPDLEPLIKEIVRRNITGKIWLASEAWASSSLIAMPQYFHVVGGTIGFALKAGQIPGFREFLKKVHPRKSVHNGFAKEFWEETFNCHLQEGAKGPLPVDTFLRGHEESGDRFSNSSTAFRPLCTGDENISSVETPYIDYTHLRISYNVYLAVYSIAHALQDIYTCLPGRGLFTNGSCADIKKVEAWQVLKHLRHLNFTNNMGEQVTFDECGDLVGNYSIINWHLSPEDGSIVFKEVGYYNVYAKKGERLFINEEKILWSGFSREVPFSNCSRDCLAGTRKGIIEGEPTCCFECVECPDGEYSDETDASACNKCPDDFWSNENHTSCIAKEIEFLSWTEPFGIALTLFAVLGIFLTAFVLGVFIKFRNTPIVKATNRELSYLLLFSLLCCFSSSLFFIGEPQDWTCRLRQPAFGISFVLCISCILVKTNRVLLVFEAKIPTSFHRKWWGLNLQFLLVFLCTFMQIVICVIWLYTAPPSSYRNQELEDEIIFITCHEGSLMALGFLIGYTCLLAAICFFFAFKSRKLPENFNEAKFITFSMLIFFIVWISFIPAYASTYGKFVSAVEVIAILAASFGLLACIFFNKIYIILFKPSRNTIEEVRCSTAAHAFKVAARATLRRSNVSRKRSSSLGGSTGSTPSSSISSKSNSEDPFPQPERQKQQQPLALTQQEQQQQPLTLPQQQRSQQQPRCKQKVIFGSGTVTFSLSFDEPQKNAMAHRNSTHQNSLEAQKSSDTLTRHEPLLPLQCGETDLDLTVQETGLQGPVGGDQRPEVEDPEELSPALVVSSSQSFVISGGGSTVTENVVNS
Description: In-vitro assay of calcimimetics through modulation of Calcium Sensing Receptor (intracellular calcium, FLIPR). It counts as cell-based. To be noted: HEK293 cells stably expressing hCaSR, increase in intracellular calcium, Fluo4NW dye, 0.3 mM CaCl2, 8-point assay, read-out: EC50 Range. The procedure:
In-vitro assay method of Calcimimetics through modulation of Calcium Sensing Receptor (CaSR):
The ability of the compounds to modulate Calcium sensing receptor is determined by measuring an increase in intracellular calcium [Ca^2+]i. Stably transfected HEK293 cells expressing hCaSR_pTriEx-3 hygro vector are developed. Cells are grown overnight on a 96-well plate to 80% confluency in Ham's F12 containing 20% FBS at 37° C., 5% CO2. Subsequently, cells are washed extensively with 20 mM HEPES buffer containing 126 mM […], 1 mM MgCl2 and 4 mM KCl to remove serum components that might interfere with the assay. Cells are loaded with calcium sensing Fluo4NW dye in HEPES base buffer containing 0.1% BSA and 1 mg/ml glucose for 30 minutes to measure changes in intracellular calcium. The activities of the compounds are measured in FLIPR using 0.3 mM CaCl2 in 20 mM HEPES base buffer. The effectiveness of the compound to modulate receptor activity is determined by calculating the EC50 responses for that compound in an 8-point assay and plotted using GraphPad Prism 5.
Turning to `C[C@@H](NC[C@H]1C[C@@H](c2cc(F)c(C(=O)O)c(F)c2)c2ccccc2O1)c1cccc2ccccc12` [Example 101, 2,6-Difluoro-4-((2R,4S)-2-((((R)-1-(naphthalen-1-yl)ethyl)amino)methyl)chroman-4-yl)benzoic acid hydrochloride], the 50% effective concentration (EC50) is 20 to 50 nM. As to `Cc1cc([C@@H]2C[C@H](CN[C@H](C)c3cccc4ccccc34)Oc3ccccc32)ccc1C(=O)O` [Example 99b, 2-Methyl-4-((2R,4S)-2-((((R)-1-(naphthalen-1-yl)ethyl)amino)methyl)chroman-4-yl)benzoic acid hydrochloride], the EC50 is less than 20 nM. As to `C[C@@H](NC[C@H]1C[C@@H](c2ccc(CC(=O)O)cc2)c2ccccc2O1)c1cccc2ccccc12` [Example 107b, 2-(4-((2R,4S)-2-((((R)-1-(Naphthalen-1-yl)ethyl)amino)methyl)chroman-4-yl)phenyl)acetic acid hydrochloride], the EC50 lay within 20 to 50 nM. Regarding `Cc1ccc([C@@H]2C[C@H](CN[C@H](C)c3cccc4ccccc34)Oc3ccccc32)cc1C(=O)O` [Example 84b, 2-Methyl-5-((2R,4S)-2-((((R)-1-(naphthalen-1-yl)ethyl)amino)methyl)chroman-4-yl)benzoic acid hydrochloride], the concentration for a half-maximal effect (EC50) is less than 20 nM.

With `COc1c(C(=O)O)cccc1[C@H]1C[C@H](CN[C@H](C)c2cccc3ccccc23)Oc2ccccc21` [Example 89a, 2-Methoxy-3-((2R,4S)-2-((((R)-1-(naphthalen-1-yl)ethyl)amino)methyl)chroman-4-yl)benzoic acid hydrochloride], the EC50 was in the range of 20 to 50 nM. For `Cc1c(C(=O)O)ccc(F)c1[C@@H]1C[C@H](CN[C@H](C)c2cccc3ccccc23)Oc2ccccc21` [Example 81b, 4-Fluoro-2-methyl-3-((2R,4R)-2-((((R)-1-(naphthalen-1-yl)ethyl)amino)methyl)chroman-4-yl)benzoic acid hydrochloride], the concentration giving a half-maximal response (EC50) is less than 20 nM. Take `C[C@@H](NC[C@H]1C[C@H](c2ccc(C(C)(C)C(=O)O)cc2)c2ccccc2O1)c1cccc2ccccc12` [Example 108a, 2-Methyl-2-(4-((2R,4R)-2-((((R)-1-(naphthalen-1-yl)ethyl)amino)methyl)chroman-4-yl)phenyl)propanoic acid hydrochloride]: the EC50 lay within 50 to 200 nM. On to `C[C@@H](NC[C@H]1C[C@@H](c2ccc(C(C)(C)C(=O)O)cc2)c2ccccc2O1)c1cccc2ccccc12` [Example 108b, 2-Methyl-2-(4-((2R,4S)-2-((((R)-1-(naphthalen-1-yl)ethyl)amino)methyl)chroman-4-yl)phenyl)propanoic acid hydrochloride], for which the concentration giving a half-maximal response (EC50) is 50 to 200 nM. Next, `COc1c(C(=O)O)cccc1[C@@H]1C[C@H](CN[C@H](C)c2cccc3ccccc23)Oc2ccccc21` [Example 89b, 2-Methoxy-3-((2R,4R)-2-((((R)-1-(naphthalen-1-yl)ethyl)amino)methyl)chroman-4-yl)benzoic acid hydrochloride]: less than 20 nM; `C[C@@H](NC[C@H]1C[C@@H](c2ccc(C(=O)O)cc2)c2ccccc2O1)c1cccc2ccccc12` [Example 98b, 4-((2R,4S)-2-((((R)-1-(Naphthalen-1-yl)ethyl)amino)methyl)chroman-4-yl)benzoic acid hydrochloride]: 50 to 200 nM. Turning to `Cc1ccc([C@@H]2C[C@H](CN[C@H](C)c3cccc4ccccc34)Oc3ccccc32)cc1OCC(=O)O` [Example 91, 2-(2-Methyl-5-((2R,4S)-2-((((R)-1-(naphthalen-1-yl)ethyl)amino)methyl)chroman-4-yl)phenoxy)acetic acid hydrochloride], the 50% effective concentration (EC50) is less than 20 nM. Consider `Cc1ccc([C@@H]2C[C@H](CN[C@H](C)c3cccc4ccccc34)Oc3ccccc32)c(C)c1C(=O)O` [Example 67, 2,6-Dimethyl-3-((2R,4S)-2-((((R)-1-(naphthalen-1-yl)ethyl)amino)methyl)chroman-4-yl)benzoic acid hydrochloride], for which the EC50 was less than 20 nM. Take `CCN(C)C(=O)c1cc([C@@H]2C[C@H](CN[C@H](C)c3cccc4ccccc34)Oc3ccccc32)ccc1C` [Example 145, N-Ethyl-N,2-dimethyl-5-((2R,4S)-2-((((R)-1-(naphthalen-1-yl)ethyl)amino)methyl)chroman-4-yl)benzamide hydrochloride]: the EC50 was in the range of 50 to 200 nM.

In the case of `CCN(CC)C(=O)c1cc([C@@H]2C[C@H](CN[C@H](C)c3cccc4ccccc34)Oc3ccccc32)ccc1C` [Example 146, N,N-Diethyl-2-methyl-5-((2R,4S)-2-((((R)-1-(naphthalen-1-yl)ethyl)amino)methyl)chroman-4-yl)benzamide hydrochloride], the EC50 was 20 to 50 nM.

`C[C@@H](NC[C@H]1C[C@@H](c2ccc(C(F)(F)F)c(C(=O)O)c2)c2ccccc2O1)c1cccc2ccccc12` [Example 83, 5-((2R,4S)-2-((((R)-1-(Naphthalen-1-yl)ethyl)amino)methyl)chroman-4-yl)-2-(trifluoromethyl)benzoic acid hydrochloride]: the EC50 is less than 20 nM. `C[C@@H](NC[C@H]1C[C@H](c2ccc(F)c(OCC(=O)O)c2)c2ccccc2O1)c1cccc2ccccc12` [Example 93a, 2-(2-Fluoro-5-((2R,4R)-2-((((R)-1-(naphthalen-1-yl)ethyl)amino)methyl)chroman-4-yl)phenoxy)acetic acid hydrochloride]: the EC50 is less than 20 nM. Take `Cc1cc(C(=O)O)cc([C@@H]2C[C@H](CN[C@H](C)c3cccc4ccccc34)Oc3ccccc32)c1` [Example 75, 3-Methyl-5-((2R,4S)-2((((R)-1-(naphthalen-1-yl)ethyl)amino)methyl)chroman-4-yl)benzoic acid hydrochloride]: the EC50 is less than 20 nM. As to `C[C@@H](NC[C@H]1C[C@@H](c2cccc(C(=O)NCC(=O)O)c2)c2ccccc2O1)c1cccc2ccccc12` [Example 140, 2-(3-((2R,4S)-2-((((R)-1-(Naphthalen-1-yl)ethyl)amino)methyl)chroman-4-yl)benzamido) acetic acid hydrochloride], the concentration for a half-maximal effect (EC50) is less than 20 nM. For the molecule `COc1cc(C(=O)O)ccc1[C@@H]1C[C@H](CN[C@H](C)c2cccc3ccccc23)Oc2ccccc21` [Example 102b, 3-Methoxy-4-((2R,4S)-2-((((R)-1-(naphthalen-1-yl)ethyl)amino)methyl)chroman-4-yl)benzoic acid hydrochloride], the EC50 was less than 20 nM. As for `C[C@@H](NC[C@H]1C[C@@H](c2ccc(OCC(=O)O)cc2)c2ccccc2O1)c1cccc2ccccc12` [Example 105b, 2-(4-((2R,4S)-2-((((R)-1-(Naphthalen-1-yl)ethyl)amino)methyl)chroman-4-yl)phenoxy)acetic acid hydrochloride], the EC50 is less than 20 nM. As for `C[C@@H](NC[C@H]1C[C@@H](c2cccc(OC(C)(C)C(=O)O)c2)c2ccccc2O1)c1cccc2ccccc12` [Example 97, 2-Methyl-2-(3-((2R,4S)-2-((((R)-1-(naphthalen-1-yl)ethyl)amino)methyl)chroman-4-yl)phenoxy)propanoic acid hydrochloride], the concentration giving a half-maximal response (EC50) was 20 to 50 nM. Take `Cc1c(C(=O)O)ccc(F)c1[C@H]1C[C@H](CN[C@H](C)c2cccc3ccccc23)Oc2ccccc21` [Example 81a, 4-Fluoro-2-methyl-3-((2R,4S)-2-((((R)-1-(naphthalen-1-yl)ethyl)amino)methyl)chroman-4-yl)benzoic acid hydrochloride]: the EC50 was 50 to 200 nM. Regarding `C[C@@H](NCCC[C@H]1C[C@@H](c2ccc(C(=O)O)cc2)c2ccccc2O1)c1ccc(F)c2ccccc12` [Example 136, 4-((2S,4S)-2-(3-(((R)-1-(4-Fluoronaphthalen-1-yl)ethyl)amino)propyl)chroman-4-yl)benzoic acid hydrochloride], the EC50 was less than 20 nM.
